According to ChEMBL document CHEMBL1201862, “PubChem BioAssay data set” (2004):
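Cells were grown in 96-well plates and exposed to each compound for 48 hours at five concentrations; endpoints were interpolated linearly between bracketing concentrations, or set to the highest concentration if not reached. GI50: concentration for 50% inhibition of growth.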 Active and inactive are the calls of the source. Rule as the data show it: active = GI50 up to about 1.1 µM and inactive = higher.

Assays:
Assay in all cases: NCI tumour cell line growth inhibition, 48 h
[1] = test system: A498
[2] = test system: SR
[3] = test system: HL-60
[4] = test system: 786-0
[5] = test system: SK-MEL-28
[6] = test system: HOP-92
[7] = test system: OVCAR-4
[8] = test system: DLD-1
[9] = test system: COLO 205
[10] = test system: ACHN
[11] = test system: HCT-15
[12] = test system: SK-MEL-5
[13] = test system: HCC 2998
[14] = test system: M14
[15] = test system: SF-539
[16] = test system: EKVX
[17] = test system: UACC-62
[18] = test system: SN12C
[19] = test system: PC-3
[20] = test system: T47D

`N#CC1=C(c2ccccc2)NN(Cc2ccccc2)C(c2ccc(Cl)cc2)CC1=O` (stereo not drawn) was tested. Which GI50 [1] did it give?
The GI50 was 24.8 µM (inactive).

And the GI50 [2]?
The GI50 was 20.6 µM (inactive).

And the GI50 [3]?
The GI50 was 28.2 µM (inactive).

What about the GI50 [4] of the same compound?
The GI50 was 24.3 µM (inactive).

And the GI50 [5]?
The GI50 was 39.8 µM (inactive).

What about the GI50 [6] of the same compound?
The GI50 was 16.3 µM (inactive).

And the GI50 [7]?
The GI50 was 20.9 µM (inactive).

What about the GI50 [8] of the same compound?
Its GI50 is 15.7 µM (inactive).

And the GI50 [9]?
The GI50 was 36.1 µM (inactive).

And the GI50 [10]?
The GI50 was 23.3 µM (inactive).

And the GI50 [11]?
Its GI50 is 22.9 µM.

And the GI50 [12]?
The GI50 was 15.6 µM (inactive).

For `Cc1ccc2[nH]c3c(C)c4c(c(C)c3c2c1)CN(C)C=C4`, which GI50 [2] is on record?
The GI50 was 1.61 µM (inactive).

What about the GI50 [3] of the same compound?
The GI50 was 4.46 µM (inactive).

And the GI50 [4]?
Its GI50 is 0.325 µM (active).

What about the GI50 [5] of the same compound?
The GI50 was 1.98 µM (inactive).

And the GI50 [13]?
The GI50 was 1.52 µM (inactive).

What about the GI50 [6] of the same compound?
Its GI50 is 1.07 µM (active).

What about the GI50 [14] of the same compound?
The GI50 was 3.9 µM (inactive).

What about the GI50 [15] of the same compound?
Its GI50 is 0.393 µM (active).

What about the GI50 [16] of the same compound?
The GI50 was 1.17 µM (inactive).

What about the GI50 [7] of the same compound?
Its GI50 is 1.66 µM (inactive).

And the GI50 [17]?
Its GI50 is 1.62 µM (inactive).

What about the GI50 [8] of the same compound?
The GI50 was 1.44 µM (inactive).

What about the GI50 [9] of the same compound?
Its GI50 is 0.285 µM (active).

What about the GI50 [10] of the same compound?
The GI50 was 6.55 µM (inactive).

What about the GI50 [18] of the same compound?
Its GI50 is 0.186 µM (active).

What about the GI50 [11] of the same compound?
Its GI50 is 13.8 µM.

And the GI50 [12]?
Its GI50 is 1.38 µM (inactive).

Which GI50 [1] does the source give for `N#CCC(=O)N/N=C(\CCN1CCCC1)CC(c1ccccc1)c1c(O)c2ccccc2oc1=O` (stereo not drawn) here?
Its GI50 is > 41.1 µM (inactive).

And the GI50 [2]?
The GI50 was 29.4 µM (inactive).

And the GI50 [19]?
Its GI50 is 64.7 µM (inactive).

And the GI50 [3]?
Its GI50 is 24.5 µM (inactive).

And the GI50 [4]?
The GI50 was > 100 µM (inactive).

And the GI50 [5]?
Its GI50 is > 100 µM (inactive).

What about the GI50 [13] of the same compound?
The GI50 was 21.2 µM (inactive).

What about the GI50 [6] of the same compound?
Its GI50 is 27.7 µM (inactive).

And the GI50 [14]?
The GI50 was 98.6 µM (inactive).

What about the GI50 [15] of the same compound?
Its GI50 is > 88.5 µM (inactive).

And the GI50 [16]?
Its GI50 is > 100 µM (inactive).

And the GI50 [7]?
The GI50 was > 86.3 µM (inactive).

And the GI50 [17]?
Its GI50 is > 80.2 µM (inactive).

What about the GI50 [8] of the same compound?
The GI50 was > 100 µM (inactive).

And the GI50 [9]?
The GI50 was 25.5 µM (inactive).

And the GI50 [10]?
The GI50 was > 60.4 µM (inactive).

What about the GI50 [18] of the same compound?
The GI50 was > 100 µM (inactive).

What about the GI50 [11] of the same compound?
Its GI50 is over 67.5 µM.

What about the GI50 [12] of the same compound?
The GI50 was > 72.1 µM (inactive).

Which results are given for `COC(=O)c1sc(C(=O)OC)c2c1CSC2`?
GI50 [1]: > 91 µM (inactive); GI50 [2]: > 100 µM (inactive); GI50 [19]: > 100 µM (inactive); GI50 [3]: > 100 µM (inactive); GI50 [4]: 53.6 µM (inactive); GI50 [5]: > 100 µM (inactive); GI50 [13]: > 100 µM (inactive); GI50 [6]: 32 µM (inactive); GI50 [14]: > 100 µM (inactive); GI50 [15]: 53.3 µM (inactive); GI50 [16]: > 100 µM (inactive); GI50 [7]: > 100 µM (inactive); GI50 [17]: > 78.7 µM (inactive); GI50 [8]: > 100 µM (inactive); GI50 [9]: > 100 µM (inactive); GI50 [10]: > 100 µM (inactive); GI50 [18]: > 100 µM (inactive); GI50 [11]: > 91.2 µM; GI50 [12]: > 100 µM (inactive)

With `CC1(C)CCC[C@@]2(C)C1CC[C@H]1CC(O)C3(C)CCC12C3` (stereo partly drawn) as the compound, how does the GI50 [2] read?
Its GI50 is 21.3 µM (inactive).

And the GI50 [3]?
The GI50 was 23.3 µM (inactive).

What about the GI50 [4] of the same compound?
The GI50 was 17.5 µM (inactive).

And the GI50 [5]?
The GI50 was 18.4 µM (inactive).

What about the GI50 [13] of the same compound?
Its GI50 is 19.8 µM (inactive).

What about the GI50 [6] of the same compound?
Its GI50 is 15.6 µM (inactive).

What about the GI50 [14] of the same compound?
The GI50 was 17.1 µM (inactive).

And the GI50 [15]?
The GI50 was 18.9 µM (inactive).

And the GI50 [7]?
Its GI50 is 18.1 µM (inactive).

What about the GI50 [17] of the same compound?
The GI50 was 15.8 µM (inactive).

And the GI50 [8]?
The GI50 was 17.1 µM (inactive).

What about the GI50 [10] of the same compound?
The GI50 was 17.9 µM (inactive).

What about the GI50 [18] of the same compound?
Its GI50 is 16.9 µM (inactive).

And the GI50 [11]?
The GI50 was 18.2 µM.

And the GI50 [12]?
Its GI50 is 17.5 µM (inactive).

`N#CC(NNC(=O)Cc1ccccc1)c1c(O)ccc2ccccc12` (stereo not drawn) was tested. Which GI50 [1] did it give?
The GI50 was 30.3 µM (inactive).

What about the GI50 [2] of the same compound?
Its GI50 is 3.44 µM (inactive).

And the GI50 [19]?
Its GI50 is 5.33 µM (inactive).

What about the GI50 [3] of the same compound?
The GI50 was 1.67 µM (inactive).

What about the GI50 [4] of the same compound?
The GI50 was 4.6 µM (inactive).

What about the GI50 [5] of the same compound?
The GI50 was 7.66 µM (inactive).

And the GI50 [13]?
The GI50 was 14.3 µM (inactive).

And the GI50 [6]?
The GI50 was 5 µM (inactive).

What about the GI50 [14] of the same compound?
Its GI50 is 5.13 µM (inactive).

And the GI50 [15]?
Its GI50 is 4.16 µM (inactive).

And the GI50 [16]?
Its GI50 is 5.56 µM (inactive).

What about the GI50 [7] of the same compound?
Its GI50 is 5.5 µM (inactive).

And the GI50 [17]?
Its GI50 is 3.08 µM (inactive).

What about the GI50 [8] of the same compound?
Its GI50 is 3.96 µM (inactive).

And the GI50 [9]?
The GI50 was 24.7 µM (inactive).

And the GI50 [20]?
Its GI50 is 3.45 µM (inactive).

What about the GI50 [10] of the same compound?
The GI50 was 3.4 µM (inactive).

And the GI50 [18]?
Its GI50 is 7.93 µM (inactive).

And the GI50 [11]?
Its GI50 is 2.7 µM.

What about the GI50 [12] of the same compound?
The GI50 was 3.46 µM (inactive).

How did the GI50 [1] turn out when `CSc1nc(NC2OC(COC(C)=O)C(OC(C)=O)C(OC(C)=O)C2OC(C)=O)c2c(n1)OCC2=O` (stereo not drawn) was run?
The GI50 was > 100 µM (inactive).

What about the GI50 [2] of the same compound?
The GI50 was > 100 µM (inactive).

What about the GI50 [3] of the same compound?
Its GI50 is > 100 µM (inactive).

What about the GI50 [4] of the same compound?
The GI50 was > 100 µM (inactive).

And the GI50 [5]?
Its GI50 is > 100 µM (inactive).

And the GI50 [6]?
The GI50 was > 100 µM (inactive).

What about the GI50 [14] of the same compound?
Its GI50 is > 100 µM (inactive).

What about the GI50 [15] of the same compound?
The GI50 was > 100 µM (inactive).

And the GI50 [7]?
The GI50 was > 100 µM (inactive).

And the GI50 [17]?
The GI50 was > 100 µM (inactive).

What about the GI50 [8] of the same compound?
Its GI50 is > 100 µM (inactive).

And the GI50 [9]?
Its GI50 is > 100 µM (inactive).

And the GI50 [10]?
Its GI50 is > 100 µM (inactive).

What about the GI50 [18] of the same compound?
The GI50 was > 100 µM (inactive).

And the GI50 [11]?
The GI50 was over 100 µM.

And the GI50 [12]?
The GI50 was > 100 µM (inactive).
